Reference: US20240262727A1, “METHOD FOR IMPROVING BIOLOGICAL NITROGEN REMOVAL EFFECT OF LOW-TEMPERATURE SEWAGE” (Sichuan University, priority 2023, published 2024)

Test system: activated sludge
Test: Activated sludge SBR reactor, biological nitrogen removal with added AHLs signal molecule
Conditions: remaining steps as Example 1 (10° C.)

Compound | ammonia-nitrogen removal efficiency (10 μg/L after addition) [%] | ammonia-nitrogen removal efficiency (100 μg/L after addition) [%]
CCCCCCCC(=O)N[C@H]1CCOC1=O [C8-HSL, N-octanoyl-L-homoserine lactone] | 88.37 | 94.54
CCCCCCCCCCCC(=O)N[C@H]1CCOC1=O [C12-HSL, N-dodecanoyl-L-homoserine lactone] | 90.79 | 80.95
